Consider four compounds from patent US12544359B2, “1-aminosulfonyl-2-carboxypyrrole derivatives as metallo-beta-lactamase inhibitors” (INFEX Therapeutics Limited, priority 2019, dated 2026).

Where a name gives a salt, the structure may show the parent alone.

One data set concerns the target NDM-1 (Klebsiella pneumoniae, UniProt C7C422). The experiment in a line: metallo-β-lactamase inhibition assay (nitrocefin). The conditions noted are these: 1.5 nM NDM-1, 100 μM nitrocefin, 37° C., pH 7.5. It is filed as biochemical. As to the method:
Compounds of the invention were tested in a metallo-β-lactamase inhibition assay to investigate mechanism of action of the compounds. Results are reported as the concentration of test article required to inhibit enzyme activity by 50% (IC50).
Inhibition of metallo-β-lactamase enzyme function was performed at 37° C. in buffer at pH 7.5 (50 mM HEPES, 150 mM NaCl, 0.1 mM ZnSO4, 20 μg/mL PEG4000), containing 1.5 nM NDM-1, 100 μM nitrocefin, and a range of concentrations of compound. Absorbance at 490 nm was measured using a BMG LABTECH FLUOstar Omega microplate reader every minute for 30 minutes. IC50s were determined from the average increase in OD per minute versus the Log 10 concentration of compound using GraphPad Prism.

For data set [1], the system named is Cerep SafetyScreen44 Panel (44 targets). The experiment in a line: off-target inhibition, Cerep SafetyScreen44 Panel. On the procedure:
Compounds were also tested for off-target inhibition in a Cerep SafetyScreen44 Panel.

Data set [2] in a line: solubility study in saline, identified visually. The conditions noted are these: 2 mg in 40 μL saline (50 mg/mL), visual; free base unless indicated. It is filed as physicochemical. As to the method: Compounds were also tested in a solubility study. Each sample (2 mg) was weighed into a clear 1.75 mL vial followed by the addition of saline (40 μL, to make up to 50 mg/mL). Unless indicated otherwise, the compounds were tested as the free base. Each resulting mixture was vortexed (if required) and the solubility of each was identified visually.

Data set [3] in a line: Cytotoxicity Assay (CellTiter-Glo). The conditions noted are these: human, Hep G2 cells (ATCC HB-8065); 24 h exposure; read-out: HepG2 CC50. It is filed as cell-based. On the procedure:
Cytotoxicity was evaluated in human Hep G2 cells (ATCC HB-8065) seeded at a density of 2×10^5 cells per well and incubated for 24 h at 37° C., 5% CO2. Cells were exposed to a doubling dilution series of test article. After 24 h exposure, the viability of the cells was determined using CellTiter-Glo® (Promega, WI, USA) according to the manufacturer's instructions. Results are reported as the concentration of test article required to reduce cell viability by 50% (CC50).
In general terms: In ATP-based viability assays light output follows the ATP content of the culture.

In data set [4] the test system is E. coli ATCCBAA-2452 NDM-1. The experiment in a line: Meropenem combination MIC. The conditions noted are these: meropenem only (baseline). It is filed as cell-based. On the procedure: (§1) MICs were determined by exposing bacteria to serial dilutions of antibacterial agents in MHB-II (cation-adjusted Mueller-Hinton Broth pH 7.4) according to Clinical and Laboratory Standards Institute (CLSI) broth microdilution guidelines (Cockerill et al., 2012).
(§2) Combination MIC were performed as described for MIC determinations with the addition of 4 mg/L test article to MHB-II.
(§3) The compounds of the invention were tested against a primary panel of bacterial strains, columns I-V of Table 2. As appropriate, compounds considered suitable for further investigation were tested against a secondary panel of bacterial strains, columns VI and VII of Table 2.

In the next data set the test system is A. baumannii SG698 NDM-1. The experiment in a line: Meropenem combination MIC. It is filed as cell-based. The following applies: meropenem only (baseline). On the procedure: as §1, §2, §3
A further data set has as its system E. coli NCTC13476 IMP. The experiment in a line: Meropenem combination MIC. It is filed as cell-based. The conditions noted are these: meropenem only (baseline). As to the method: as §1, §2, §3
Data set [5] concerns K. pneumoniae NCTC13440 VIM-1. The experiment in a line: Meropenem combination MIC. It is filed as cell-based. The conditions noted are these: meropenem only (baseline). On the procedure:
as §1, §2, §3

The test system of data set [6] is K. pneumoniae NCTC13439 VIM-1. The experiment in a line: Meropenem combination MIC. It is filed as cell-based. The following applies: meropenem only (baseline). As to the method:
as §1, §2, §3

For data set [7], the system named is K. pneumoniae ATCC BAA2146 NDM-1. The experiment in a line: Meropenem combination MIC. It is filed as cell-based. The following applies: meropenem only (baseline). As to the method: as §1, §2, §3

Chain of NDM-1 (C7C422 whole entry, looked up, species assumed): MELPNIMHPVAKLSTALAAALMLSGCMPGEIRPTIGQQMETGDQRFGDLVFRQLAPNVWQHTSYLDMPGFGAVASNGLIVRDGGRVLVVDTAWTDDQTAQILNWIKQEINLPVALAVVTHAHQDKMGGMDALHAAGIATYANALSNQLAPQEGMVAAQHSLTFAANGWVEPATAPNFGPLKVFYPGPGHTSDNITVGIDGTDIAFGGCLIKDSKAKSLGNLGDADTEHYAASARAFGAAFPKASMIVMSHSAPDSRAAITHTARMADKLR

In the case of `CNCCN(C)C(=O)c1ccc(-c2ccn(S(N)(=O)=O)c2C(=O)O)cc1` [Example 25, 3-[4-[Methyl-[2-(methylamino)ethyl]carbamoyl]phenyl]-1-sulfamoyl-pyrrole-2-carboxylic acid], the midpoint of inhibition at NDM-1, the IC50, lay at 319 nM. Moreover, the “Number of targets ≥50% inhibition at 100 μM” value in data set [1] was 0. The Solubility entry in [2] is “Soluble”. Further, in data set [3], the CC50 (usually the concentration at which the toxic effect on the cells reaches its halfway point) at 24 h was greater than 256 µg/mL.

Consider `C[C@H](N)C(=O)N1CCC(c2ccn(S(N)(=O)=O)c2C(=O)O)CC1` [Example 69, 3-[1-[(2S)-2-Aminopropanoyl]-4-piperidyl]-1-sulfamoyl-pyrrole-2-carboxylic acid], for which inhibition against NDM-1 was half-maximal at 1480 nM (IC50). Also, the “Number of targets ≥50% inhibition at 100 μM” value in data set [1] is 0. For the same compound, in data set [2], the Solubility result is listed as “Soluble”. For the same compound, in data set [3], the CC50 at 24 h was greater than 256 µg/mL.

As for `NCCNc1ccc(-c2ccn(S(N)(=O)=O)c2C(=O)O)cn1` [Example 95, 3-[6-(2-Aminoethylamino)-3-pyridyl]-1-sulfamoyl-pyrrole-2-carboxylic acid hydrochloride], the IC50 – broadly, the concentration that inhibits the measured activity by half – against NDM-1 came to 377 nM. In data set [3], the CC50 at 24 h was greater than 256 µg/mL.

With `C[C@@H](O)[C@H]1C(=O)N2C(C(=O)O)=C(S[C@@H]3CN[C@H](C(=O)N(C)C)C3)[C@H](C)[C@H]12` [Meropenem, meropenem], the “Meropenem MIC (μg/mL) I E. coli ATCCBAA-2452 NDM-1” value in data set [4] came to 1 µg/mL. Further, the “Meropenem MIC (μg/mL) IV A. baumannii SG698 NDM-1” value with A. baumannii SG698 NDM-1 is 8 µg/mL. In addition, in the data set on E. coli NCTC13476 IMP, the “Meropenem MIC (μg/mL) II E. coli NCTC13476 IMP” value stood at 4 µg/mL. Further, the “Meropenem MIC (μg/mL) V K. pneumoniae NCTC13440 VIM-1” value in data set [5] was 1 µg/mL. The “Meropenem MIC (μg/mL) VII K. pneumoniae NCTC13439 VIM-1” value in data set [6] is 0.5 µg/mL. The “Meropenem MIC (μg/mL) III K. pneumoniae ATCC BAA2146 NDM-1” value in data set [7] came out at 16 µg/mL.
